Publication PMC12860872, “Preclinical evaluation of DOTAGA.Glu.(FAPI)2 and DO3A.Glu.(FAPI)2 as theranostics with human dosimetry extrapolation to lutetium-177 and terbium-161 analogs” (European Journal of Nuclear Medicine and Molecular Imaging, 2025)
Where “and” joins values, the source holds several entries; their conditions need not be identical. Equal entries are not always repeated.

Tests used:
[1] = test system: PC3-mice; experiment: Organ clearance biological half-lives from biodistribution data; assay type: in vivo, mouse; settings: PC3-mice, One-Phase Decay Model
Experimental: Blood samples were collected from the facial vein at 1, 3, 5, 7, 10, 15, 20, 30, 45, 60, 240, and 1440 min p.i., weighed, and measured for radioactivity using a γ-counter. Results were expressed as % I.A./g of blood and plotted over time. The initial and terminal half-lives were determined using Two-Phase Decay Model. The biological half-lives of selected organs were calculated from the biodistribution data using One-Phase Decay Model (GraphPad Prism 8).

[2] = Extrapolated human dosimetry (OLINDA/EXM, ICRP-89 phantoms); set-up: TIAC average pancreas: unit not given beside the values; TIAC average stomach / TIAC average Small Intestine / TIAC average Left Column / TIAC average Rectum / TIAC average adrenal / TIAC average bone / TIAC average Red marrow / TIAC average salivary glands / TIAC average ROB / TIAC average Total Frac IA / TIAC average heart content / TIAC average heart wall / TIAC average liver / TIAC average spleen / TIAC average lung / TIAC average kidney: unit not given here
Experimental: To address inter-animal variability, the TIACs for each source organ were calculated from both the mean nTACs and the nTACs obtainend from fitting the mean ± 1 standard deviation (SD) of the normalized time-activity data, providing upper and lower bounds.
The mice-to-human TIAC extrapolation accounted for species-specific differences in relative source organ masses, m(organ), as compared to the total body weight (WB), for the mice (m) and human (h) models respectively.
(§1) The human organ masses, m(organ)h, were obtained from ICRP-89 adult male and female reference phantoms, while the murine organ masses, m(organ)m, were derived from the standard MOBY mouse model. The extrapolated human TIACs, TIACh were entered in the OLINDA/EXM software to compute the absorbed doses to target organs and the effective dose for adult male, female, and gender-averaged human models. […]
The TIACs, for [177Lu]Lu-DOTAGA.Glu.(FAPI)2 and [177Lu]Lu-DO3A.Glu.(FAPI)2, were determined by time integration of the nTACs. To account for the inter-animal variability, the TIACs for each source organ were calculated using both the mean nTACs and the nTACs obtainend from fitting the mean ±1 standard deviation (SD) of the normalized time-activity data. This approach provided the upper and the lower bounds for the estimated TIACs.
The mice-to-human TIAC extrapolation was obtained considering the different (species-specific) relative source organ masses, m(organ), as compared to the total body weight (WB), for the mice (m) and human (h) models respectively.
as §1, with “the” for “ICRP-89”, “models phantoms defined in ICRP-89,” for “phantoms,”, “TIACs values, TIACh, for each source organ” for “TIACs, TIACh”, “input into the kinetic module of” for “entered in”, “software (version 2.1, HERMES Medical Solutions AB, Stockholm, Sweden)” for “software”

[3] = ICRP 89 Adult Female, extrapolated
[4] = ICRP 89 Adult Male, extrapolated
[5] = human extrapolation, male-female range

## N#C[C@@H]1CC(F)(F)CN1C(=O)CNC(=O)c1ccnc2ccc(OCCCCNC(=O)CC[C@H](NC(=O)CN3CCN(CC(=O)[O-])CCN(CC(=O)[O-])CCN(CC(=O)[O-])CC3)C(=O)NCCCCOc3ccc4nccc(C(=O)NCC(=O)N5CC(F)(F)C[C@H]5C#N)c4c3)cc12.[177Lu+3] [[^177Lu]Lu-DO3A.Glu.(FAPI)2]
[1]
  Bone clearance half-life, 95% confidence interval: 14.85 to 18.53 h
  Kidney clearance half-life, 95% confidence interval: 18.73 to 31.89 h
  Liver clearance half-life, 95% confidence interval: 51.46 to 92.13 h
  Pancreas clearance half-life, 95% confidence interval: 12.66 to 19.50 h
  Salivary glands clearance half-life, 95% confidence interval: 13.95 to 20.7 h
  Tumor clearance half-life, 95% confidence interval: 17.58 to 22.85 h
[2]; [3]
  Absorbed dose (AD average) Adrenals: 9.96E-03 mGy/Mbq
  Absorbed dose (AD average) Brain: 2.63E-02 mGy/Mbq
  Absorbed dose (AD average) Breasts: 2.57E-02 mGy/Mbq
  Absorbed dose (AD average) Esophagus: 2.66E-02 mGy/Mbq
  Absorbed dose (AD average) Eyes: 2.63E-02 mGy/Mbq
  Absorbed dose (AD average) Gallbladder Wall: 2.80E-02 mGy/Mbq
  Absorbed dose (AD average) Heart Wall: 2.49E-02 mGy/Mbq
  Absorbed dose (AD average) Kidneys: 2.54E-02 ± 0.001 mGy/Mbq and 2.54E-02 mGy/Mbq
  Absorbed dose (AD average) Left colon: 6.93E-02 mGy/Mbq
  Absorbed dose (AD average) Liver: 7.30E-02 ± 0.003 mGy/Mbq and 7.30E-02 mGy/Mbq
  Absorbed dose (AD average) Lungs: 4.16E-02 ± 0.01 mGy/Mbq and 4.16E-02 mGy/Mbq
  Absorbed dose (AD average) Osteogenic Cells: 6.24E-02 ± 0.002 mGy/Mbq and 6.24E-02 mGy/Mbq
  Absorbed dose (AD average) Ovaries: 2.76E-02 mGy/Mbq
  Absorbed dose (AD average) Pancreas: 2.62E-02 ± 0.001 mGy/Mbq and 2.62E-02 mGy/Mbq
  Absorbed dose (AD average) Rectum: 7.09E-02 mGy/Mbq
  Absorbed dose (AD average) Red Marrow: 3.06E-02 ± 0.001 mGy/Mbq and 3.06E-02 mGy/Mbq
  Absorbed dose (AD average) Right colon: 4.88E-02 mGy/Mbq
  Absorbed dose (AD average) Salivary Glands: 8.81E-02 ± 0.01 mGy/Mbq and 8.81E-02 mGy/Mbq
  Absorbed dose (AD average) Small Intestine: 4.29E-02 ± 0.003 mGy/Mbq and 4.29E-02 mGy/Mbq
  Absorbed dose (AD average) Spleen: 6.42E-02 ± 0.003 mGy/Mbq and 6.42E-02 mGy/Mbq
  Absorbed dose (AD average) Stomach Wall: 3.65E-02 mGy/Mbq
  Absorbed dose (AD average) Thymus: 2.70E-02 mGy/Mbq
  Absorbed dose (AD average) Thyroid: 2.64E-02 mGy/Mbq
  Absorbed dose (AD average) Total Body: 3.44E-02 ± 0.002 mGy/Mbq and 3.44E-02 mGy/Mbq
  Absorbed dose (AD average) Urinary Bladder Wall: 2.73E-02 mGy/Mbq
  Absorbed dose (AD average) Uterus: 2.76E-02 mGy/Mbq
  Effective dose (average): 3.49E-02
[2]; [4]
  Absorbed dose (AD average) Adrenals: 7.77E-03 mGy/Mbq
  Absorbed dose (AD average) Brain: 2.00E-02 mGy/Mbq
  Absorbed dose (AD average) Esophagus: 2.06E-02 mGy/Mbq
  Absorbed dose (AD average) Eyes: 2.00E-02 mGy/Mbq
  Absorbed dose (AD average) Gallbladder Wall: 2.20E-02 mGy/Mbq
  Absorbed dose (AD average) Heart Wall: 2.04E-02 mGy/Mbq
  Absorbed dose (AD average) Kidneys: 2.09E-02 ± 0.001 mGy/Mbq and 2.09E-02 mGy/Mbq
  Absorbed dose (AD average) Left colon: 5.77E-02 mGy/Mbq
  Absorbed dose (AD average) Liver: 6.00E-02 ± 0.002 mGy/Mbq and 6.00E-02 mGy/Mbq
  Absorbed dose (AD average) Lungs: 3.40E-02 ± 0.01 mGy/Mbq and 3.40E-02 mGy/Mbq
  Absorbed dose (AD average) Osteogenic Cells: 6.64E-02 ± 0.002 mGy/Mbq and 6.64E-02 mGy/Mbq
  Absorbed dose (AD average) Pancreas: 2.12E-02 ± 0.001 mGy/Mbq and 2.12E-02 mGy/Mbq
  Absorbed dose (AD average) Prostate: 2.07E-02 mGy/Mbq
  Absorbed dose (AD average) Rectum: 5.76E-02 mGy/Mbq
  Absorbed dose (AD average) Red Marrow: 2.43E-02 ± 0.001 mGy/Mbq and 2.43E-02 mGy/Mbq
  Absorbed dose (AD average) Right colon: 3.94E-02 mGy/Mbq
  Absorbed dose (AD average) Salivary Glands: 7.27E-02 ± 0.01 mGy/Mbq and 7.27E-02 mGy/Mbq
  Absorbed dose (AD average) Small Intestine: 3.27E-02 ± 0.002 mGy/Mbq and 3.27E-02 mGy/Mbq
  Absorbed dose (AD average) Spleen: 5.27E-02 ± 0.002 mGy/Mbq and 5.27E-02 mGy/Mbq
  Absorbed dose (AD average) Stomach Wall: 2.83E-02 mGy/Mbq
  Absorbed dose (AD average) Testes: 2.00E-02 mGy/Mbq
  Absorbed dose (AD average) Thymus: 2.03E-02 mGy/Mbq
  Absorbed dose (AD average) Thyroid: 2.04E-02 mGy/Mbq
  Absorbed dose (AD average) Total Body: 2.71E-02 ± 0.001 mGy/Mbq and 2.71E-02 mGy/Mbq
  Absorbed dose (AD average) Urinary Bladder Wall: 2.07E-02 mGy/Mbq
[2]; ICRP 89 Adult Male, extrapolated, in mSv/MBq (unit assumed)
  Effective dose (average): 2.56E-02
[2]; [5]
  absorbed dose kidneys: 0.02–0.03 Gy/GBq
  absorbed dose liver: 0.06–0.07 Gy/GBq
  absorbed dose salivary glands: 0.07–0.09 Gy/GBq
  total body and effective doses: 0.027–0.034 Gy/GBq
[2]; human female, extrapolated
  TIAC average Left Column: 0.0781
  TIAC average ROB: 16.8035
  TIAC average Rectum: 0.0808
  TIAC average Red marrow: 0.2208
  TIAC average Small Intestine: 0.1025
  TIAC average Total Frac IA: 21.2881
  TIAC average adrenal: 0.0008
  TIAC average bone: 2.8185
  TIAC average heart content: 0.0908
  TIAC average heart wall: 0.0329
  TIAC average kidney: 0.0717
  TIAC average liver: 1.1228
  TIAC average lung: 0.4313
  TIAC average pancreas: 0.0313
  TIAC average salivary glands: 0.0707
  TIAC average spleen: 0.0929
  TIAC average stomach: 0.0501
[2]; human male, extrapolated
  TIAC average Left Column: 0.0642
  TIAC average ROB: 15.5056
  TIAC average Rectum: 0.0642
  TIAC average Red marrow: 0.2359
  TIAC average Small Intestine: 0.0958
  TIAC average Total Frac IA: 21.2881
  TIAC average adrenal: 0.0007
  TIAC average bone: 3.1852
  TIAC average heart content: 0.1028
  TIAC average heart wall: 0.0357
  TIAC average kidney: 0.0664
  TIAC average liver: 1.1865
  TIAC average lung: 0.4477
  TIAC average pancreas: 0.0300
  TIAC average salivary glands: 0.0706
  TIAC average spleen: 0.0881
  TIAC average stomach: 0.0446
